Test system: UC11-MG human astrocytoma cells
Assay: D-aspartate (excitotoxin) release by hypo-osmotically stressed astrocytoma cells
Type: cell-based
Conditions: for IC50: Homo sapiens, UC11MG, hypo-osmotic stress, about 145 mOsm, AUC-based, read-out: IC50 value (suppression of excitotoxin / D-aspartate release by stressed astrocyte cells); for Fold potency versus L-644,711: inhibition of aspartate release, compared to L-644,711; for Comparative potency: relative to L-644,711 (100% = benchmark)
Source text: The in vitro tests described in this example used UC11-MG human astrocytoma cells, obtained from the University of Cincinnati, and described in Liwnicz et al 1986 and Lomneth et al 1989. Cell culture reagents (including RPMI 1640, fetal bovine serum, trypsin, and gentamicin) were obtained from Gibco (Gaithersburg, Md.). Radiolabelled D-[2,3-^3 H]aspartate was obtained from Amersham Life Sciences (Buckinghamshire, England). ScintiVerse II scintillation fluid was obtained from Fisher Scientific (Pittsburgh, Pa.). All other chemicals were obtained from Sigma Chemical Co. (St. Louis, Mo.). Osmolarities of solutions were measured using the Advance DigiMatic Osmometer Model 3D II (Advanced Instruments Inc., Mass.).
The UC11-MG astrocytoma cells were cultured in 75 ml vented flasks at 37° C. inside a humidified incubator in 5% CO2 /95% air. The cells were grown in RPMI Medium 1640 supplemented with 10% fetal bovine serum and […] gentamicin. At approximately 90% confluence, the cells were detached and suspended using a 0.0625% trypsin solution in Buffer A (137 mM NaCl, 5.37 mM KCl, 5.55 mM glucose, 4.17 mM NaHCO3, and 0.54 mM EDTA disodium salt, pH 7.4). The cells were then plated onto 6-well tissue culture plates at a seeding ratio of 4 plates per flask and 4 ml of cell-media suspension per well. The plated cells were used in experiments the next day at approximately 90% confluence. Plates that appeared to be more than 95% confluent were not used, because higher levels of confluence led to uncontrollable differentials in exposure of the cells to culture media and labelled aspartate. All tests were performed in triplicate. All media collections were done at 5 minute intervals, using pipettes, and were followed by promptly loading fresh buffer into each well before any drying occurred. All buffer samples collected in this manner were loaded into scintillation vials, mixed with 5 ml scintillation fluid, and counted for 1 minute in a scintillation counter (Beckman LS8000, Fullerton, Calif.).
Prior to D-aspartate exposure, the wells were washed three times under sterile conditions with 3 ml of 37° C. Buffer B (122 mM NaCl, 3.3 mM KCl, 1.2 mM CaCl2, 0.4 mM MgSO4, 1.2 mM KH2 PO4, 25 mM Hepes, 10 mM glucose, pH 7.4).
The cells were then loaded with 0.5 μCi/ml of D-aspartate, and incubated at 37° C. for 30 min. Cells were then washed four times with Buffer B, and the last washing fluid was left on the cells. The plates were then placed on an orbital shaker and maintained at 37° C.
Baseline aspartate release levels (prior to drug treatment) were determined by incubating the cells with normal Buffer B (285 mOsm) for 15 minutes, while buffer was collected every 5 minutes.
After the buffer was collected from a well at the 15 minute mark, the next set of normal Buffer B added to that well contained a test compound at a known concentration; each compound was tested over a range of concentrations. Cells were then incubated for two 5 minute intervals with solutions of test compounds in normal Buffer B. In some tests which used buffers containing relatively high concentrations of a test drug with limited solubility in water, DMSO was added to the mixture to increase the solubility of the compound in water.
Beginning at the 25-minute mark, the cells were stimulated to begin releasing aspartate by loading a well with hypo-osmotic buffer, prepared by diluting Buffer B with an equal volume of distilled and deionized H2 O, resulting in an osmolarity of about 145 mOsm. This hypo-osmoticsolution caused the cells to begin taking in excess water, to try to reestablish the normal osmotic gradients that exist across the cell membranes. The water-induced swelling and stress then began to induce release of aspartate by the cells, and the amount of aspartate released by the swollen astrocyte cells was measured by removing the buffer every 5 minutes and testing it in a scintillation counter.

| Structure (SMILES) | IC50 [µM] | Fold potency versus L-644,711 [fold] | Comparative potency |
| --- | --- | --- | --- |
| CCC[C@]12CCC(=O)C=C1c1c(cc(OCC(=O)NCCCn3ccnc3)c(Cl)c1Cl)C2 [GERI-AmE5, R(+)-N-[3-(1-imidazolyl)-propyl][(5,6-dichloro-2,3,9,9a-tetrahydro-3-oxo-9a-propyl-1H-fluoren-7-yl)oxy]acetamide] | 39.8 | ~7 | 662% |
| CCC[C@]12CCC(=O)C=C1c1c(cc(OCc3cccc(C(=O)O)c3)c(Cl)c1Cl)C2 [GERI-E4, Sodium R(+)-3-[(5,6-dichloro-2,3 9,9a-tetrahydro-3-oxo-9a-propyl-1H-fluoren-7-yl)oxymethyl]benzoate] | 7.8 | ~34 | 3,378% |
| CCC[C@]12CCC(=O)C=C1c1c(cc(OCc3ccccc3C(=O)O)c(Cl)c1Cl)C2 [GERI-E3, Sodium R(+)-2-[(5,6-dichloro-2 3,9,9a-tetrahydro-3-oxo-9a-propyl-1H-fluoren-7-yl)oxymethyl]benzoate] | 7.9 |  | 3,335% |
| CCC[C@]12CCC(=O)C=C1c1c(cc(OCC(=O)O)c(Cl)c1Cl)C2 [L-644,711, R(+)-[(5,6-dichloro-2,3,9,9a-tetrahydro-3-oxo-9a-propyl-1H-fluoren-7-yl)oxy]acetic acid, reference compound] | 264 |  |  |
| CCC[C@]12CCC(=O)C=C1c1c(cc(OCC(=O)NCC(OC)OC)c(Cl)c1Cl)C2 [GERI-AmE1, R(+)-N-[2,2-(dimethoxy)-ethyl][(5,6-dichloro-2,3,9,9a-tetrahydro-3-oxo-9a-propyl-1H-fluoren-7-yl)oxy]acetamide] | 19.4 |  | 1,358% |
| CCC[C@]12CCC(=O)C=C1c1c(cc(OCOC(C)=O)c(Cl)c1Cl)C2 [GERI-E13, R-(+)-7-(acetoxymethoxy)-5,6-dichloro-9a-propyl-2,3,9,9a-tetrahydro-1H-fluoren-3-one] | 19.2 |  | 1,372% |
| CCC[C@]12CCC(=O)C=C1c1c(cc(OCC(=O)NCc3ccccc3)c(Cl)c1Cl)C2 [GERI-AmE3, R(+)-N-benzyl-[(5,6-dichloro-2,3,9,9a-tetrahydro-3-oxo-9a-propyl-1H-fluoren-7-yl)oxy]acetamide] | 31.9 |  | 826% |
| CCC[C@]12CCC(=O)C=C1c1c(cc(OCC(=O)NCc3ccccn3)c(Cl)c1Cl)C2 [GERI-AmE4, R(+)-N-[(2-pyridylmethyl][5,6-dichloro-2,3,9,9a-tetrahydro-3-oxo-9a-propyl-1H-fluoren-7-yl)oxy]acetamide] | 11.6 |  | 2,272% |
| CCC[C@]12CCC(=O)C=C1c1c(cc(OCC(CO)(CO)CO)c(Cl)c1Cl)C2 [GERI-E1, R-(+)-5,6-dichloro-7-[3-hydroxy-2,2-bis-(hydroxymethyl)propyloxy]-9a-propyl-2,3,9,9a-tetrahydro-1H-fluoren-3-one] | 29.5 |  | 893% |
| CCC[C@]12CCC(=O)C=C1c1c(cc(OC(C)=O)c(Cl)c1Cl)C2 [GERI-Est1, R-(+)-7-acetoxy-5,6-dichloro-9a-propyl-2,3,9,9a-tetrahydro-1H-fluoren-3-one] | 13.9 |  | 1,896% |
| CCC[C@]12CCC(=O)C=C1c1c(cc(OCc3ccc(C(=O)O)cc3)c(Cl)c1Cl)C2 [GERI-E5, Sodium R(+)-4-[(5,6-dichloro-2,3,9,9a-tetrahydro-3-oxo-9a-propyl-1H-fluoren-7-yl)oxymethyl]benzoate] | 8 |  | 3,294% |

Source: patent US6251898A, “Medical use of fluorenone derivatives for treating and preventing brain and spinal injury” (Questcor Pharmaceuticals, Inc., priority 1999, dated 2001)
